Measurements reported in patent US11473088B2, “Method of treating cancer and method of sensitizing cancer cells to the action of chemotherapeutic agents via growth hormone receptor antagonists or knock down” (Ohio University, priority 2016, dated 2022).

Assays:
MALME-3M cells = assay: RT-qPCR of RNA levels after hGH addition or GHR-KD; format: cell-based, human; settings: 0, 5, 50 and 150 ng/mL hGH, 24 hr
Experimental: (§1) For hGH treatment, 16 hours after seeding (or 24 hours post-transfection), the cells were serum-starved for 2 hours in serum-free growth media, and hGH (phosphate buffered saline was used as control where applicable) was added at the noted concentrations (0-, 5-, 50-, and 150 ng/ml). Cells were subsequently incubated for 24 hours before evaluating RNA levels. Recombinant hGH was purchased from Antibodies Online (#ABIN2017921, Atlanta, Ga.).
(§2) Transfection was performed using siLentFect lipid reagent (Biorad #170-3360, Hercules, Calif.) following the manufacturer's protocol. […] Mock transfections were performed using universal scrambled negative control siRNA-duplex (Origene #SR30004). TYE-563-fluorescent labeled siRNA duplex (Origene #SR30002) was used as the transfection control. Cells were trypsinized, counted using a Countess Automated Cell Counter (Life Technologies, Carlsbad, Calif.), and seeded at 25,000-30,000 cells/cm^2, the cells being allowed to attach for 16-18 hours. The growth media was replaced with fresh antibiotic free complete growth medium just prior to transfection. […] Media was changed to complete growth medium plus antibiotics after 24 hours. RNA levels were analyzed 48 hours post-transfection, and protein levels were analyzed at 60 hours post-transfection.
(§3) RNA extraction was performed using the IBI-Trizol based total RNA purification kit (MidSci #IB47632, St. Louis, Mo.), and reverse transcription was performed using Maxima First Strand cDNA synthesis kit (Thermo Fisher Scientific #K1642, Waltham, Mass.) following the manufacturers' protocols. Real time-quantitative PCR and melt curve analysis were performed using Maxima SYBR-Green qPCR master mix (Thermo Fisher Scientific #K0241) and a T100 thermal cycler (Biorad #1861096, Hercules, Calif.). RNA and DNA concentrations were estimated using a Nanodrop2000 (Thermo Fisher Scientific, Waltham, Mass.) spectrophotometer. Primers were obtained from Sigma-Aldrich for the following human genes, with primer efficiency being experimentally confirmed: GAPDH, b-Actin, GHR, GHRHR, SOCS2, IGF1, IGF1R, IGF2, IGF2R, PRL, PRLR, insulin (Ins), IR, IGFBP2, IGFBP3, EGFR, HGF, cMET and ERBB3. Each sample represented a pool of two replicates per experiment. Experiments were performed at least three times. Each qPCR for individual genes and every treatment for every cell type was performed in triplicates.
(§4) And so—referring now to FIGS. 12A-12B, 17A-17C, 18A-18F, 19A-19F, and 20A-20F—RT-qPCR analysis of GH-IGF axis in human melanoma cells (FIGS. 12A-12B) and RT-qPCR analysis of GH-GHR and PRL-PRLR pairs in human melanoma cells (FIGS. 17A-17C) was performed. […] And, while not shown in FIGS. 12A and 12B, similar results for MALME-3M, MDA-MB-435 and SK-MEL-5 human melanoma cells are presented in FIGS. 13A-13L, 17A-17C, 18A-18F, 19A-19F, and 20A-20F. […] In all cases, exogenous hGH treatment was for 24 hr. RNA levels were normalized against expression of beta-actin and GAPDH as reference genes. […] Cells were grown in presence of 50 ng/mL exogenous GH and protein level changes were estimated 60 hr. post-transfection. [*, p<0.05, Students t test, n=3]. […] The percentage free area at the end time point was calculated using ImageJ software and reflected the decrease/inhibition in migration. […] [*, p<0.05, Students t-test, n=3]. In all cases, exogenous hGH treatment was for 24 hr. RNA levels were normalized against expression of β-actin and GAPDH as reference genes [*, p<0.05, Wilcoxon sign rank test, n=4]. […] In all cases, exogenous hGH treatment was for 24 hr. RNA levels were normalized against expression of β-actin and GAPDH as reference genes. [*, p<0.05, Wilcoxon sign rank test, n=4]

MDA-MB-435 cells = assay: RT-qPCR of RNA levels after hGH addition or GHR-KD; format: cell-based, human
Experimental: as §1, §2, §3, §4

## hGH: Recombinant human growth hormone, Antibodies Online #ABIN2017921
MALME-3M cells
  RNA levels of TYRP1 with GH: dose-dependent increase
MDA-MB-435 cells
  E-cadherin RNA levels with increasing GH: decreased significantly
